Source: patent US20170158702A1, “MULTIVALENT RAS BINDING COMPOUNDS” (KYRAS THERAPEUTICS, INC., priority 2015, published 2017)
pEC50: −log10 of the molar value. Structures can show the parent of a compound that is named as a salt.

Tests used:
Format in all cases: cell-based
NCI-H460 = test: Viability assay with NCI-H460 (CellTiter-Glo cytotoxicity assay, 72 h); details: NCI-H460 cell line, 72 h after compounds addition
Protocol: (§1) NCI-H460 (Epithelial lung tissue; carcinoma; large cell lung cancer) were cultured in RPMI Medium 1640 (Invitrogen-22400105) supplemented with 10% fetal bovine serum (FBS; Invitrogen-10099141). All the cell lines were maintained in a humidified incubator at 37° C. with 5% CO2. Cell culture media and supplements were purchased from Invitrogen, and tissue culture flasks were purchased from Corning, 96-well plates were purchased from Greiner. CellTiter-Glo Luminescent Cell Viability Assay kits were purchased from Promega (Promega-G7573), cells counter Vi-Cell was purchased from Beckman, D300e digital dispenser was purchased from Tecan, detection instrument Envision was purchased from PerkinElmer.
(§2) Paclitaxel was purchased from SELLECK, test compounds, such as any one of the compounds disclosed herein, attained solubility in DMSO and when diluted into culture media. DMSO, solutions containing the test compounds, and culture media were warmed to 37° C. or room temperature for the solution preparation and dilutions.
(§3) NCI-H460 Cell line were seeded in 96-well plates (1200/well) and allowed to adhere to overnight (100 uL/well), for drug treatments with 2 fold dilution, 9 dose points, triplicates or vehicle control, compound stock solutions were prepared in DMSO and use D300e digital dispenser to add compounds to the wells to give the indicated final drug concentrations. Final DMSO concentration was 0.5%. Cellular ATP concentrations were assessed by using the CellTiter-Glo Cell Viability Assay as per the manufacturer's instructions 72 h after compounds addition. Additional cells lines were assayed with any one of the compounds disclosed herein according to the procedures described for the viability assay with NCI-H460.

MIA PaCa-2 = test: Viability assay with MIA PaCa-2; details: MIA PaCa-2, viability assay per Example 57
Protocol: as §1, §2, §3
A viability assay with MIA PaCa-2 (Epithelial pancreas tissue; carcinoma) was performed with compounds listed in Table 15, according to the procedures described in Example 57.

HT-29 = test: Viability assay with HT-29; details: HT-29, viability assay per Example 57
Protocol: as §1, §2, §3
A viability assay with HT-29 (Colorectal adenocarcinoma) was performed with compounds listed in Table 18 according to the procedures described in Example 57.

Row | Compound | pEC50 (MIA PaCa-2) | pEC50 (HT-29) | pEC50 (NCI-H460)
1 | FC(F)(F)Oc1ccc(-c2cn(CCCCNc3ccccn3)c3ccc(CN4CCN(Cc5ccccc5Cl)CC4)cc23)cc1 [C202; Formic Acid] | 5.00 to 5.30 | 5.00 to 5.30 | ≥ 5.30
2 | NCc1ccc(-n2cc(-c3ccc(OC(F)(F)F)cc3)c3cc(CN4CCN(Cc5ccccc5Cl)CC4)ccc32)cc1 [C149; Formic Acid] | ≥ 5.30 | ≥ 5.30 | ≥ 5.30
3 | NCCCn1cc(-c2ccc(OC(F)(F)F)cc2)c2cc(CN3CCC(Nc4ccccc4Cl)CC3)ccc21 [C213; Formic Acid] | ≥ 5.30 | ≥ 5.30 | ≥ 5.30
4 | FC(F)(F)Oc1ccc(-c2cn(CCCNc3ccccn3)c3ccc(CN4CCN(Cc5ccccc5Cl)CC4)cc23)cc1 [C208; Formic Acid] | 5.00 to 5.30 | 5.00 to 5.30 | ≥ 5.30
5 | Nc1ccc(Cn2cc(-c3ccc(OC(F)(F)F)cc3)c3cc(CN4CCN(Cc5ccccc5Cl)CC4)ccc32)cn1 [C232; Formic Acid] | ≥ 5.30 | ≥ 5.30 | ≥ 5.30
6 | Cc1ncc(CN2CCN(Cc3ccc4c(c3)c(-c3ccc(OC(F)(F)F)cc3)cn4CCCN)CC2)[nH]1 [C195; HCl] | 5.00 to 5.30 | 5.00 to 5.30 | 5.00 to 5.30
7 | NCCCn1cc(-c2ccc(OC(F)(F)F)cc2)c2cc(S(=O)(=O)N3CCN(Cc4ccccc4Cl)CC3)ccc21 [C153; Formic Acid] | ≥ 5.30 | ≥ 5.30 | ≥ 5.30
8 | FC(F)(F)Oc1ccc(-c2cn(CCCCN(c3ccccn3)c3ccccn3)c3ccc(CN4CCN(Cc5ccccc5Cl)CC4)cc23)cc1 [C205; Formic Acid] | 5.00 to 5.30 | 5.00 to 5.30 | 5.00 to 5.30
9 | Cc1ncc(CN2CCN(Cc3ccc4c(c3)c(-c3ccc(OC(F)(F)F)cc3)cn4CCCN)CC2)n1C [C194; HCl] | 5.00 to 5.30 | 5.00 to 5.30 | 5.00 to 5.30
10 | CC(C)(N)CCCn1cc(-c2ccc(OC(F)(F)F)cc2)c2cc(CN3CCN(Cc4ccccc4Cl)CC3)ccc21 [C132; Formic acid] | ≥ 5.30 | ≥ 5.30 | ≥ 5.30
11 | NCc1ccc(-n2cc(-c3ccc(OC(F)(F)F)cc3)c3cc(CN4CCN(Cc5ccccc5Cl)CC4)ccc32)cn1 [C218; Formic Acid] | ≥ 5.30 | ≥ 5.30 | ≥ 5.30
12 | NCCCn1cc(-c2ccc(CCN)cc2)c2cc(CN3CCN(Cc4ccccc4Cl)CC3)ccc21 [C188; HCl] | 5.00 to 5.30 | 5.00 to 5.30 | 5.00 to 5.30
13 | COc1ccc(-n2c(=O)n(CCCN)c3ccc(CN4CCN(Cc5ccccc5Cl)CC4)cc32)cc1 [C200; HCl] | 5.00 to 5.30 | 5.00 to 5.30 | 5.00 to 5.30
14 | NCc1cc(OC(F)(F)F)ccc1-c1cn(CCCNC(=O)C2(N)CCNCC2)c2ccc(CN3CCN(Cc4ccccc4Cl)CC3)cc12 [C264; HCl] | 5.00 to 5.30 | 5.00 to 5.30 | 5.00 to 5.30
15 | COc1ccc(CN2CCN(Cc3ccc4c(c3)c(-c3ccc(OC(F)(F)F)cc3CN)cn4CCCN)CC2)cc1 [C266; HCl] | ≥ 5.30 | ≥ 5.30 | ≥ 5.30
16 | COc1ccc(-c2cn(CCCN)c3ccc(CN4CCN(Cc5ccccc5Cl)CC4)cc23)cn1 [C141; HCl] | ≥ 5.30 | ≥ 5.30 | ≥ 5.30
17 | FC(F)(F)Oc1ccc(-n2cc(C3CCNCC3)c3cc(CN4CCN(Cc5ccccc5Cl)CC4)ccc32)cc1 [C217; HCl] | ≥ 5.30 | ≥ 5.30 | ≥ 5.30
18 | COc1cccc(NC2CCN(Cc3ccc4c(c3)c(-c3ccc(OC(F)(F)F)cc3CN)cn4CCCN)CC2)c1 [C277; HCl] | ≥ 5.30 | ≥ 5.30 | ≥ 5.30
19 | COc1cccc(CC2CCN(Cc3ccc4c(c3)c(-c3ccc(OC(F)(F)F)cc3CN)cn4CCCN)CC2)c1 [C262; HCl] | ≥ 5.30 | ≥ 5.30 | ≥ 5.30
20 | NCCCn1cc(-c2ccc(OC(F)(F)F)cc2CN)c2cc(CN3CCOCC3)ccc21 [C265; HCl] | ≥ 5.30 | ≥ 5.30 | ≥ 5.30
21 | NCc1ccc(Cn2cc(-c3ccc(OC(F)(F)F)cc3)c3cc(CN4CCN(Cc5ccccc5Cl)CC4)ccc32)cn1 [C224; Formic Acid] | ≥ 5.30 | ≥ 5.30 | ≥ 5.30
22 | NCCCn1cc(-c2ccc(OC(F)(F)F)cc2)c2cc(CN3CCN(Cc4ccc(Cl)cc4Cl)CC3)ccc21 [C135; HCl] | ≥ 5.30 | ≥ 5.30 | ≥ 5.30
23 | NCCCn1cc(-c2ccc(OC(F)(F)F)cc2)c2cc(CN3CCN(Cc4ccc(Cl)cc4)CC3)ccc21 [C137; HCl] | ≥ 5.30 | ≥ 5.30 | ≥ 5.30
24 | Cn1nccc1CN1CCN(Cc2ccc3c(c2)c(-c2ccc(OC(F)(F)F)cc2)cn3CCCN)CC1 [C128; HCl] | ≥ 5.30 | ≥ 5.30 | ≥ 5.30
25 | COc1ccc(-c2cn(C(C)(C)CCN)c3ccc(CN4CCN(Cc5ccccc5Cl)CC4)cc23)cc1 [C206; HCl] | ≥ 5.30 | ≥ 5.30 | ≥ 5.30
26 | Cc1ccc(-c2cn(CCCN)c3ccc(CC4CCN(Cc5ccccc5Cl)CC4)cc23)c(CN)c1 [C269; Formic Acid] | ≥ 5.30 | ≥ 5.30 | ≥ 5.30
27 | NCCCn1cc(-c2ccccc2CCN)c2cc(CN3CCN(Cc4ccccc4Cl)CC3)ccc21 [C131; HCl] | – | ≥ 5.30 | –

Now from value to compound, other results behind:

Row | pEC50 (MIA PaCa-2) | pEC50 (HT-29) | Compound | pEC50 (NCI-H460)
28 | ≥ 5.30 | ≥ 5.30 | NCCCn1cc(-c2ccc(OC(F)(F)F)cc2)c2cc(CN3CCN(Cc4ncccc4Cl)CC3)ccc21 [C151; HCl] | ≥ 5.30
29 | ≥ 5.30 | ≥ 5.30 | NCCCn1cc(-c2ccc(OC(F)(F)F)cc2CN)c2cc(CN3CCC4(CCCN(Cc5ccccc5Cl)C4)CC3)ccc21 [C253; HCl] | ≥ 5.30
30 | ≥ 5.30 | ≥ 5.30 | COc1cccc(Cl)c1-c1cn(CCCN)c2ccc(CN3CCN(Cc4c(Cl)cccc4Cl)CC3)cc12 [C154; HCl] | ≥ 5.30
31 | ≥ 5.30 | ≥ 5.30 | NCCCn1cc(-c2ccc(OC(F)(F)F)cc2CN)c2cc(CN3CCS(=O)(=O)CC3)ccc21 [C288; HCl] | ≥ 5.30
32 | ≥ 5.30 | ≥ 5.30 | COc1cc(OC)cc(C(C)(C)N2CCN(Cc3ccc4c(c3)c(-c3ccc(OC(F)(F)F)cc3CN)cn4CCCN)CC2)c1 [C285; HCl] | ≥ 5.30
33 | ≥ 5.30 | ≥ 5.30 | COc1cnc(-c2cn(CCCN)c3ccc(CN4CCN(Cc5ccccc5Cl)CC4)cc23)nc1 [C204; HCl] | ≥ 5.30
34 | ≥ 5.30 | ≥ 5.30 | NCCCn1cc(-c2cccc(CO)c2)c2cc(CN3CCN(Cc4ccccc4Cl)CC3)ccc21 [C152; HCl] | ≥ 5.30
35 | ≥ 5.30 | ≥ 5.30 | NCCCn1cc(-c2ccc(OC(F)(F)F)cc2)c2c(CN3CCN(CCOc4ccc(Cl)cc4)CC3)cccc21 [C144; HCl] | ≥ 5.30
36 | ≥ 5.30 | ≥ 5.30 | COc1cc(CN(C)CCN(C)Cc2ccc3c(c2)c(-c2ccc(OC(F)(F)F)cc2CN)cn3CCCN)cc(OC)c1 [C297; HCl] | ≥ 5.30
37 | ≥ 5.30 | ≥ 5.30 | NCCCn1cc(-c2ccc(C(N)=O)cc2)c2cc(CN3CCN(Cc4ccccc4Cl)CC3)ccc21 [C180; HCl] | ≥ 5.30
38 | ≥ 5.30 | ≥ 5.30 | NCc1cc(OC(F)(F)F)ccc1-c1cn(C2CCNCC2)c2ccc(CN3CCN(Cc4ccccc4Cl)CC3)cc12 [C254; HCl] | ≥ 5.30
39 | ≥ 5.30 | ≥ 5.30 | NCCCn1cc(-c2ccc(OC(F)(F)F)cc2CN)c2cc(CN3CCN(Cc4cccc(OC(F)(F)F)c4)CC3)ccc21 [C267; HCl] | ≥ 5.30
40 | ≥ 5.30 | ≥ 5.30 | NCCCn1cc(-c2ccc(OC(F)(F)F)cc2)c2cc(CN3CCN(Cc4ccc(Cl)c(Cl)c4)CC3)ccc21 [C138; HCl] | ≥ 5.30
41 | ≥ 5.30 | ≥ 5.30 | CCCCn1cc(-c2ccc(OC(F)(F)F)cc2CN)c2cc(CN3CCN(Cc4ccccc4Cl)CC3)ccc21 [C227; HCl] | ≥ 5.30
42 | ≥ 5.30 | ≥ 5.30 | FC(F)(F)Oc1ccc(-c2cn(CC3CCCNC3)c3ccc(CN4CCN(Cc5ccccc5Cl)CC4)cc23)cc1 (stereo not shown) [C230; HCl] | ≥ 5.30
43 | ≥ 5.30 | ≥ 5.30 | NCCCn1cc(-c2ccc(OC(F)(F)F)cc2)c2c(CN3CCN(Cc4ccccc4Cl)CC3)cccc21 [C183; HCl] | ≥ 5.30
44 | ≥ 5.30 | ≥ 5.30 | FC(F)(F)Oc1ccc(-c2cn(C3CCNC3)c3ccc(CN4CCN(Cc5ccccc5Cl)CC4)cc23)cc1 (stereo not shown) [C197; HCl] | ≥ 5.30
45 | ≥ 5.30 | ≥ 5.30 | COc1cccc(OC2CCN(Cc3ccc4c(c3)c(-c3ccc(OC(F)(F)F)cc3CN)cn4CCCN)CC2)c1 [C280; HCl] | ≥ 5.30
46 | ≥ 5.30 | ≥ 5.30 | NCCCn1cc(-c2ccc(OC(F)(F)F)cc2CN)c2cc(CN3CCC(Nc4cccc(Cl)c4)CC3)ccc21 [C247; HCl] | ≥ 5.30
